Measurements as given in the supplement of paper PMC6045584.
± gives the standard deviation of the averaged measurements.

Experiments:
NILOTINIB = compound: Cc1cn(-c2cc(NC(=O)c3ccc(C)c(Nc4nccc(-c5cccnc5)n4)c3)cc(C(F)(F)F)c2)cn1 [NILOTINIB]; assay: surviving fraction relative to DMSO-only wells; higher = less growth inhibition; settings: exposure time: 5 days
How it was run: (§1)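 Viability was determined by CellTiter-Glo luminescence, expressed as surviving fraction normalised to the median of DMSO-only wells. The cells were log-phase tumour cell lines seeded at 250–500 per well in 384-well plates and, after 24 hours, exposed continuously for five days to inhibitors at 0.5, 1, 5, 10, 50, 100, 500 and 1000 nM. Three screens per line were run, keeping only lines with replicate Pearson r >0.7 and median Z' >0.3.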

BEZ-235 = compound: Cn1c(=O)n(-c2ccc(C(C)(C)C#N)cc2)c2c3cc(-c4cnc5ccccc5c4)ccc3ncc21 [BEZ-235]; assay: as above; settings: exposure time: 5 days
How it was run: as §1

| Test System | surviving fraction (NILOTINIB; 0.5 nM) | surviving fraction (NILOTINIB; 1 nM) | surviving fraction (NILOTINIB; 5 nM) | surviving fraction (NILOTINIB; 10 nM) | surviving fraction (NILOTINIB; 50 nM) | surviving fraction (NILOTINIB; 100 nM) | surviving fraction (NILOTINIB; 500 nM) | surviving fraction (NILOTINIB; 1000 nM) | surviving fraction (BEZ-235; 0.5 nM) | surviving fraction (BEZ-235; 1 nM) | surviving fraction (BEZ-235; 5 nM) | surviving fraction (BEZ-235; 10 nM) | surviving fraction (BEZ-235; 50 nM) | surviving fraction (BEZ-235; 100 nM) | surviving fraction (BEZ-235; 500 nM) | surviving fraction (BEZ-235; 1000 nM) |
| --- | --- | --- | --- | --- | --- | --- | --- | --- | --- | --- | --- | --- | --- | --- | --- | --- |
| VP229 BREAST | 1.24 ± 0.14 | 1.12 ± 0.11 | 1.04 ± 0.075 | 1.18 ± 0.24 | 1.05 ± 0.041 | 1.08 ± 0.094 | 1.28 ± 0.04 | 1.12 ± 0.059 | 1.36 ± 0.32 | 1.22 ± 0.075 | 1.25 ± 0.089 | 1.04 ± 0.035 | 0.969 ± 0.094 | 0.751 ± 0.025 | 0.268 ± 0.008 | 0.159 ± 0.008 |
| CADOES1 SOFT TISSUE | 1.02 ± 0.17 | 0.987 ± 0.05 | 1.01 ± 0.13 | 0.93 ± 0.071 | 0.932 ± 0.13 | 1.02 ± 0.045 | 0.963 ± 0.055 | 1.01 ± 0.057 | 0.965 ± 0.1 | 0.996 ± 0.098 | 0.897 ± 0.03 | 0.99 ± 0.078 | 0.531 ± 0.11 | 0.28 ± 0.063 | 0.128 ± 0.007 | 0.0853 ± 0.01 |
| ZR751 BREAST | 1.05 ± 0.13 | 1.01 ± 0.11 | 1.069 ± 0.0042 | 1.03 ± 0.14 | 0.895 ± 0.03 | 0.834 ± 0.14 | 0.826 ± 0.058 | 0.66 ± 0.073 | 1.03 ± 0.1 | 1.03 ± 0.23 | 0.912 ± 0.12 | 0.907 ± 0.093 | 0.725 ± 0.063 | 0.519 ± 0.1 | 0.226 ± 0.011 | 0.176 ± 0.011 |
| HCC1954 BREAST | 0.917 ± 0.15 | 0.891 ± 0.032 | 0.936 ± 0.059 | 0.969 ± 0.019 | 0.589 ± 0.0085 | 0.677 ± 0.12 | 0.8063 ± 0.0032 | 0.739 ± 0.077 | 1.02 ± 0.06 | 0.947 ± 0.1 | 1.05 ± 0.064 | 0.875 ± 0.11 | 0.492 ± 0.02 | 0.363 ± 0.02 | 0.172 ± 0.011 | 0.127 ± 0.0092 |
